Results from PubChem BioAssay AID1845217 (Molecular Pharmacology Branch, DTP, NCI, 2023).
pIC50: −log10 of the molar value.

System: VA-ES-BJ tumor spheroid viability
Assay: Anticancer human tumor VA-ES-BJ cell line growth inhibition;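 further: spheroids exposed to compounds for seven days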;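 on viability, T/C: percent of DMSO vehicle control viability so 100% = untreated growth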
Details: spheroids with HUVEC and MSC; for pIC50: curve of first compound; for viability, T/C: stronger effect = lower value
Outline: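 Complex tumor spheroids combined malignant cells with endothelial cells and mesenchymal stem cells. DNA-damaging drugs and DNA repair inhibitors were tested alone and in combination, at half-log dilutions down from clinical Cmax (top 10 microM if Cmax unknown), 0.25% DMSO final.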

[1] = second compound 30 pM, first compound 0.00949 µM
[2] = second compound 30 pM, first compound 0.03 µM
[3] = second compound 30 pM, first compound 0.0949 µM
[4] = second compound 30 pM, first compound 0.3 µM
[5] = second compound 30 pM, first compound 0.949 µM
[6] = second compound 30 pM, first compound 3 µM
[7] = second compound 94.9 pM, first compound 0.00949 µM
[8] = second compound 94.9 pM, first compound 0.03 µM
[9] = second compound 94.9 pM, first compound 0.0949 µM
[10] = second compound 94.9 pM, first compound 0.3 µM
[11] = second compound 94.9 pM, first compound 0.949 µM
[12] = second compound 94.9 pM, first compound 3 µM
[13] = second compound 0.0003 µM, first compound 0.00949 µM
[14] = second compound 0.0003 µM, first compound 0.03 µM
[15] = second compound 0.0003 µM, first compound 0.0949 µM
[16] = second compound 0.0003 µM, first compound 0.3 µM
[17] = second compound 0.0003 µM, first compound 0.949 µM
[18] = second compound 0.0003 µM, first compound 3 µM
[19] = second compound 0.000949 µM, first compound 0.00949 µM
[20] = second compound 0.000949 µM, first compound 0.03 µM
[21] = second compound 0.000949 µM, first compound 0.0949 µM
[22] = second compound 0.000949 µM, first compound 0.3 µM
[23] = second compound 0.000949 µM, first compound 0.949 µM
[24] = second compound 0.000949 µM, first compound 3 µM
[25] = second compound 0.003 µM, first compound 0.00949 µM
[26] = second compound 0.003 µM, first compound 0.03 µM
[27] = second compound 0.003 µM, first compound 0.0949 µM
[28] = second compound 0.003 µM, first compound 0.3 µM
[29] = second compound 0.003 µM, first compound 0.949 µM
[30] = second compound 0.003 µM, first compound 3 µM

For CNCc1ccc(-c2cc(-c3nc(-c4ccc(S(=O)(=O)C(C)C)cc4)cnc3N)on2)cc1 + COc1cc2c(cc1O)CCNC21CSC2c3c(OC(C)=O)c(C)c4c(c3C(COC1=O)N1C(O)C3Cc5cc(C)c(OC)c(O)c5C(C21)N3C)OCO4, the pIC50 (second compound 30 pM) was 6.59, the pIC50 (second compound 94.9 pM) was 6.91 and the pIC50 (second compound 0.0003 µM) was greater than 8.02. It also gave a pIC50 (second compound 0.000949 µM) greater than 8.02, a pIC50 (second compound 0.003 µM) greater than 8.02 and a viability, T/C [1] of 91.9%. It also gave a viability, T/C [2] of 90%, a viability, T/C [3] of 82.8% and a viability, T/C [4] of 45.7%. The viability, T/C [5] was 7.78%, the viability, T/C [6] was 1.72% and the viability, T/C [7] was 85.9%. The viability, T/C [8] was 79.8%, the viability, T/C [9] was 51.1% and the viability, T/C [10] was 34.1%. The viability, T/C [11] was 6.4%, the viability, T/C [12] was 1.3% and the viability, T/C [13] was 47.9%. For the same compound, the viability, T/C [14] was 44.7%, the viability, T/C [15] was 36.5% and the viability, T/C [16] was 23.9%. For the same compound, the viability, T/C [17] was 5.48%, the viability, T/C [18] was 1.1% and the viability, T/C [19] was 3.65%. For the same compound, the viability, T/C [20] was 3.36%, the viability, T/C [21] was 4.65% and the viability, T/C [22] was 1.83%. It also gave a viability, T/C [23] of 0.95%, a viability, T/C [24] of 1.89% and a viability, T/C [25] of 1.45%. It also gave a viability, T/C [26] of 1.2%, a viability, T/C [27] of 0.99% and a viability, T/C [28] of 1.37%. The viability, T/C [29] was 1.15% and the viability, T/C [30] was 0.13%.
Work on Cc1sc2c(c1C)C(c1ccc(Cl)cc1)=NC(CC(=O)Nc1ccc(O)cc1)c1nnc(C)n1-2 (stereo not given) + COc1cc2c(cc1O)CCNC21CSC2c3c(OC(C)=O)c(C)c4c(c3C(COC1=O)N1C(O)C3Cc5cc(C)c(OC)c(O)c5C(C21)N3C)OCO4 yielded a pIC50 (second compound 30 pM) of 7.11, a pIC50 (second compound 94.9 pM) of 7.23 and a pIC50 (second compound 0.0003 µM) greater than 8.02. The pIC50 (second compound 0.000949 µM) was greater than 8.02, the pIC50 (second compound 0.003 µM) was greater than 8.02 and the viability, T/C [1] was 83.6%. It also gave a viability, T/C [2] of 65.8%, a viability, T/C [3] of 48.9% and a viability, T/C [4] of 27.4%. For the same compound, the viability, T/C [5] was 24%, the viability, T/C [6] was 17.5% and the viability, T/C [7] was 79.4%. For the same compound, the viability, T/C [8] was 60.9%, the viability, T/C [9] was 42.3% and the viability, T/C [10] was 27.3%. The viability, T/C [11] was 21.3%, the viability, T/C [12] was 10.5% and the viability, T/C [13] was 38.7%. For the same compound, the viability, T/C [14] was 32.4%, the viability, T/C [15] was 23.7% and the viability, T/C [16] was 13.7%. The viability, T/C [17] was 6.9%, the viability, T/C [18] was 2.06% and the viability, T/C [19] was 8.09%. It also gave a viability, T/C [20] of 2.88%, a viability, T/C [21] of 5.43% and a viability, T/C [22] of 1.01%. For the same compound, the viability, T/C [23] was 0.08%, the viability, T/C [24] was 0.14% and the viability, T/C [25] was 1.18%. The viability, T/C [26] was 1.31%, the viability, T/C [27] was 1.36% and the viability, T/C [28] was 1.87%. The viability, T/C [29] was 2.19% and the viability, T/C [30] was 3.69%.
Cn1ncnc1[C@H]1c2n[nH]c(=O)c3cc(F)cc(c23)N[C@@H]1c1ccc(F)cc1 + COc1cc2c(cc1O)CCNC21CSC2c3c(OC(C)=O)c(C)c4c(c3C(COC1=O)N1C(O)C3Cc5cc(C)c(OC)c(O)c5C(C21)N3C)OCO4 gave a pIC50 (second compound 30 pM) of 6.48, a pIC50 (second compound 94.9 pM) of 6.81 and a pIC50 (second compound 0.0003 µM) greater than 8.02. It also gave a pIC50 (second compound 0.000949 µM) greater than 8.02, a pIC50 (second compound 0.003 µM) greater than 8.02 and a viability, T/C [1] of 92.8%. For the same compound, the viability, T/C [2] was 79.3%, the viability, T/C [3] was 67.9% and the viability, T/C [4] was 54.9%. The viability, T/C [5] was 29.8%, the viability, T/C [6] was 6.51% and the viability, T/C [7] was 67.8%. The viability, T/C [8] was 70.4%, the viability, T/C [9] was 52.8% and the viability, T/C [10] was 42.1%. It also gave a viability, T/C [11] of 24%, a viability, T/C [12] of 6.18% and a viability, T/C [13] of 33.9%. The viability, T/C [14] was 29.3%, the viability, T/C [15] was 23.9% and the viability, T/C [16] was 19.7%. For the same compound, the viability, T/C [17] was 8.26%, the viability, T/C [18] was 4.82% and the viability, T/C [19] was 3.64%. It also gave a viability, T/C [20] of 3.04%, a viability, T/C [21] of 2.49% and a viability, T/C [22] of 3.23%. The viability, T/C [23] was 1.4%, the viability, T/C [24] was 0.45% and the viability, T/C [25] was 1.48%. It also gave a viability, T/C [26] of 1.15%, a viability, T/C [27] of 1.53% and a viability, T/C [28] of 2.52%. The viability, T/C [29] was 1.19% and the viability, T/C [30] was 2.91%.
For O=C(c1cc(Cc2n[nH]c(=O)c3ccccc23)ccc1F)N1CCN(C(=O)C2CC2)CC1 + COc1cc2c(cc1O)CCNC21CSC2c3c(OC(C)=O)c(C)c4c(c3C(COC1=O)N1C(O)C3Cc5cc(C)c(OC)c(O)c5C(C21)N3C)OCO4, the pIC50 (second compound 30 pM) was 4.72, the pIC50 (second compound 94.9 pM) was 4.95 and the pIC50 (second compound 0.0003 µM) was greater than 7.02. The pIC50 (second compound 0.000949 µM) was greater than 7.02, the pIC50 (second compound 0.003 µM) was greater than 7.02 and the viability, T/C [3] was 86%. It also gave a viability, T/C [4] of 95.8%, a viability, T/C [5] of 99% and a viability, T/C [6] of 91%. The viability, T/C (second compound 30 pM, first compound 9.49 µM) was 65%, the viability, T/C (second compound 30 pM, first compound 30 µM) was 40.1% and the viability, T/C [9] was 90.5%. It also gave a viability, T/C [10] of 84.7%, a viability, T/C [11] of 86.9% and a viability, T/C [12] of 76.9%. The viability, T/C (second compound 94.9 pM, first compound 9.49 µM) was 54.1%, the viability, T/C (second compound 94.9 pM, first compound 30 µM) was 24.4% and the viability, T/C [15] was 44.3%. It also gave a viability, T/C [16] of 40.7%, a viability, T/C [17] of 43.6% and a viability, T/C [18] of 33.2%. It also gave a viability, T/C (second compound 0.0003 µM, first compound 9.49 µM) of 16.1%, a viability, T/C (second compound 0.0003 µM, first compound 30 µM) of 5.05% and a viability, T/C [21] of 3.35%. The viability, T/C [22] was 2.46%, the viability, T/C [23] was 3.04% and the viability, T/C [24] was 2.86%. For the same compound, the viability, T/C (second compound 0.000949 µM, first compound 9.49 µM) was 1.46%, the viability, T/C (second compound 0.000949 µM, first compound 30 µM) was 0.33% and the viability, T/C [27] was 1.2%. It also gave a viability, T/C [28] of 1.64%, a viability, T/C [29] of 1.77% and a viability, T/C [30] of 2.03%. The viability, T/C (second compound 0.003 µM, first compound 9.49 µM) was 3.45% and the viability, T/C (second compound 0.003 µM, first compound 30 µM) was 4.01%.
